# According to ChEMBL document CHEMBL3885881, “DrugMatrix”:
# Organism: Rattus norvegicus
# Test: DrugMatrix - Regimen: Daily Repeat
# Format: toxicity, organism-based, Sprague-Dawley
# Parameters: regimen Daily Repeat, gender Male, age 6-8 weeks
# Conditions: in vivo, po, route oral GAVAGE, vehicle .5 % CMC; for ABSOLUTE BASOPHIL / ABSOLUTE EOSINOPHIL / ABSOLUTE LYMPHOCYTE / ABSOLUTE MONOCYTE / ABSOLUTE SEGMENTED NEUTROPHIL / BASOPHIL / EOSINOPHIL / ERYTHROCYTE COUNT / HEMATOCRIT / HEMOGLOBIN / LEUKOCYTE COUNT / LYMPHOCYTE / MEAN CORPUSCULAR HEMOGLOBIN / MEAN CORPUSCULAR HEMOGLOBIN CONCENTRATION / MEAN CORPUSCULAR VOLUME / MONOCYTE / NEUTROPHIL / NUCLEATED RED BLOOD CELLS / PLATELET COUNT: tissue Blood; for ALANINE AMINOTRANSFERASE / ALBUMIN / ALKALINE PHOSPHATASE / ASPARTATE AMINOTRANSFERASE / BLOOD UREA NITROGEN / CARBON DIOXIDE / CHLORIDE / CHOLESTEROL / CREATINE PHOSPHOKINASE / CREATININE / GLUCOSE / LACTATE DEHYDROGENASE / LIPASE / PHOSPHORUS / POTASSIUM / SODIUM / TOTAL BILIRUBIN / TOTAL PROTEIN / URIC ACID: tissue Plasma
# [1] = 0 mg/kg, 72 h, dose level Control, time 3 day
# [2] = 0 mg/kg, 120 h, dose level Control, time 5 day
# [3] = 3 mg/kg, 72 h, dose level Low, time 3 day
smiles,measurement,setting,value
O=c1[nH]cc(F)c(=O)[nH]1 [FLUOROURACIL],ABSOLUTE BASOPHIL,[1],0 CELLS/uL
same,ABSOLUTE EOSINOPHIL,[1],130.33 CELLS/uL
same,ABSOLUTE LYMPHOCYTE,[1],10030.67 CELLS/uL
same,ABSOLUTE MONOCYTE,[1],41 CELLS/uL
same,ABSOLUTE SEGMENTED NEUTROPHIL,[1],1298 CELLS/uL
same,BASOPHIL,[1],0%
same,EOSINOPHIL,[1],1%
same,ERYTHROCYTE COUNT,[1],5.22 x10E6/uL
same,HEMATOCRIT,[1],33.53%
same,HEMOGLOBIN,[1],12.73 G/DL
same,LEUKOCYTE COUNT,[1],11.5 x10E3/uL
same,LYMPHOCYTE,[1],87.67%
same,MEAN CORPUSCULAR HEMOGLOBIN,[1],24.45 pg
same,MEAN CORPUSCULAR HEMOGLOBIN CONCENTRATION,[1],37.97 G/DL
same,MEAN CORPUSCULAR VOLUME,[1],64.33 fL
same,MONOCYTE,[1],0.33%
same,NEUTROPHIL,[1],11%
same,NUCLEATED RED BLOOD CELLS,[1],0 /100WBC
same,PLATELET COUNT,[1],1310.5 x10E3/uL
same,ALANINE AMINOTRANSFERASE,[1],52 u/L
same,ALBUMIN,[1],4.22 G/DL
same,ALKALINE PHOSPHATASE,[1],340.17 u/L
same,ASPARTATE AMINOTRANSFERASE,[1],87.5 u/L
same,BLOOD UREA NITROGEN,[1],15.17 mg/dL
same,CARBON DIOXIDE,[1],25.5 mmol/L
same,CHLORIDE,[1],101.83 MEQ/L
same,CHOLESTEROL,[1],68.17 mg/dL
same,CREATINE PHOSPHOKINASE,[1],379.67 u/L
same,CREATININE,[1],0.17 mg/dL
same,GLUCOSE,[1],181.67 mg/dL
same,LACTATE DEHYDROGENASE,[1],256.17 u/L
same,LIPASE,[1],8 u/L
same,PHOSPHORUS,[1],12.1 mg/dL
same,POTASSIUM,[1],5.88 MEQ/L
same,SODIUM,[1],143.67 MEQ/L
same,TOTAL BILIRUBIN,[1],0.18 mg/dL
same,TOTAL PROTEIN,[1],5.92 G/DL
same,URIC ACID,[1],1.7 mg/dL
same,ABSOLUTE BASOPHIL,[2],0 CELLS/uL
same,ABSOLUTE EOSINOPHIL,[2],31 CELLS/uL
same,ABSOLUTE LYMPHOCYTE,[2],9599.17 CELLS/uL
same,ABSOLUTE MONOCYTE,[2],52.83 CELLS/uL
same,ABSOLUTE SEGMENTED NEUTROPHIL,[2],1050.33 CELLS/uL
same,BASOPHIL,[2],0%
same,EOSINOPHIL,[2],0.33%
same,ERYTHROCYTE COUNT,[2],5.53 x10E6/uL
same,HEMATOCRIT,[2],35.8%
same,HEMOGLOBIN,[2],13.53 G/DL
same,LEUKOCYTE COUNT,[2],10.73 x10E3/uL
same,LYMPHOCYTE,[2],89%
same,MEAN CORPUSCULAR HEMOGLOBIN,[2],24.47 pg
same,MEAN CORPUSCULAR HEMOGLOBIN CONCENTRATION,[2],37.82 G/DL
same,MEAN CORPUSCULAR VOLUME,[2],64.7 fL
same,MONOCYTE,[2],0.5%
same,NEUTROPHIL,[2],10.17%
same,NUCLEATED RED BLOOD CELLS,[2],0 /100WBC
same,PLATELET COUNT,[2],1028.5 x10E3/uL
same,ALANINE AMINOTRANSFERASE,[2],45.33 u/L
same,ALBUMIN,[2],4.33 G/DL
same,ALKALINE PHOSPHATASE,[2],351.83 u/L
same,ASPARTATE AMINOTRANSFERASE,[2],73.5 u/L
same,BLOOD UREA NITROGEN,[2],17.83 mg/dL
same,CARBON DIOXIDE,[2],24.67 mmol/L
same,CHLORIDE,[2],100 MEQ/L
same,CHOLESTEROL,[2],67 mg/dL
same,CREATINE PHOSPHOKINASE,[2],284 u/L
same,CREATININE,[2],0.2 mg/dL
same,GLUCOSE,[2],152.33 mg/dL
same,LACTATE DEHYDROGENASE,[2],108.67 u/L
same,LIPASE,[2],8.17 u/L
same,PHOSPHORUS,[2],11.17 mg/dL
same,POTASSIUM,[2],6.14 MEQ/L
same,SODIUM,[2],144.68 MEQ/L
same,TOTAL BILIRUBIN,[2],0.22 mg/dL
same,TOTAL PROTEIN,[2],6.08 G/DL
same,URIC ACID,[2],1.27 mg/dL
same,ABSOLUTE BASOPHIL,[3],0 CELLS/uL
same,ABSOLUTE EOSINOPHIL,[3],34 CELLS/uL
same,ABSOLUTE LYMPHOCYTE,[3],9566.33 CELLS/uL
same,ABSOLUTE MONOCYTE,[3],34 CELLS/uL
same,ABSOLUTE SEGMENTED NEUTROPHIL,[3],1732.33 CELLS/uL
same,BASOPHIL,[3],0%
same,EOSINOPHIL,[3],0.33%
same,ERYTHROCYTE COUNT,[3],5.74 x10E6/uL
same,HEMATOCRIT,[3],36.43%
same,HEMOGLOBIN,[3],13.5 G/DL
same,LEUKOCYTE COUNT,[3],11.37 x10E3/uL
same,LYMPHOCYTE,[3],84%
same,MEAN CORPUSCULAR HEMOGLOBIN,[3],23.57 pg
same,MEAN CORPUSCULAR HEMOGLOBIN CONCENTRATION,[3],37.07 G/DL
same,MEAN CORPUSCULAR VOLUME,[3],63.6 fL
same,MONOCYTE,[3],0.33%
same,NEUTROPHIL,[3],15.33%
same,NUCLEATED RED BLOOD CELLS,[3],0 /100WBC
same,PLATELET COUNT,[3],984 x10E3/uL
same,ALANINE AMINOTRANSFERASE,[3],53.67 u/L
same,ALBUMIN,[3],4.33 G/DL
same,ALKALINE PHOSPHATASE,[3],357 u/L
same,ASPARTATE AMINOTRANSFERASE,[3],102 u/L
same,BLOOD UREA NITROGEN,[3],15 mg/dL
same,CARBON DIOXIDE,[3],26 mmol/L
same,CHLORIDE,[3],100.67 MEQ/L
same,CHOLESTEROL,[3],72.33 mg/dL
same,CREATINE PHOSPHOKINASE,[3],938.33 u/L
same,CREATININE,[3],0.19 mg/dL
same,GLUCOSE,[3],156 mg/dL
same,LACTATE DEHYDROGENASE,[3],212 u/L
same,LIPASE,[3],8.67 u/L
same,PHOSPHORUS,[3],12.53 mg/dL
same,POTASSIUM,[3],6.78 MEQ/L
same,SODIUM,[3],143.77 MEQ/L
same,TOTAL BILIRUBIN,[3],0.23 mg/dL
same,TOTAL PROTEIN,[3],6.07 G/DL
